Structures can show the parent of a compound that is named as a salt.
What was measured:
[1] = pH 7.4; cited from earlier work
[2] = PAMPA-BBB permeability assay
Excerpt: In the present study we used a Parallel Artificial Membrane Permeation Assay (PAMPA) with a membrane mimicking the BBB phospholipidic composition (PAMPA-BBB) to evaluate and predict passive, transcellular permeability of the mescaline-NBOMe, 25B-NBOMe and 25N-NBOMe drugs.
The PiON inc database software was used for data analysis.

[3] = test system: differentiated SH-SY5Y cells; experiment: Intracellular ROS (DCFH-DA probe), differentiated SH-SY5Y; type: cell-based; settings: positive control, 200 µM, 24 h, vs negative control cells
Procedure: Reactive oxygen species (ROS) production was evaluated using the 2′,7′-dichlorofluorescein diacetate (DCFH-DA) probe. In the cytoplasm, DCFH-DA is hydrolyzed producing 2′,7′-dichlorodihydrofluorescein (DCFH) that, in the presence of ROS, is easily oxidized to the highly fluorescent 2′,7′-dichlorofluorescein (DCF).
(§1) ROS production was evaluated by using the well-known membrane permeable fluorescent probe 2′,7′-dichlorofluorescein diacetate (DCFH-DA). Both cell lines were seeded in 96-well cell culture plates, and pre-incubated with 10 µM DCFH-DA, protected from light, at 37 °C, in a 5% CO2–95% air atmosphere. After 30 min, DCFH-DA was removed, and the cells were exposed to the drugs (0–500 µM for SH-SY5Y cells and 0–1000 µM for HepG2 cells), at 37 °C, in a 5% CO2–95% air atmosphere. Subsequently, after 24 h of exposure, the fluorescence was measured at 485 nm excitation and 530 nm emission wavelengths in a multi-well plate reader (PowerWaveX BioTek Instruments, Winooski, VT, USA). Additionally, tert-butyl hydroperoxide (200 µM, 24 h) was used as a positive control for ROS overproduction. The results were expressed as percentage of control cells. At least four independent experiments were performed, in triplicate.

HepG2 cells = experiment: Intracellular ROS (DCFH-DA probe), HepG2; type: cell-based; settings: HepG2, positive control, 200 µM, 24 h, vs control cells (0 µM)
Procedure: as §1

| SMILES | −Log Pe ± SD [2] | also measured |
| --- | --- | --- |
| CC(=O)Nc1ccccc1 [Acetanilide] |  | CHI (IAM) [1]: 11.57 |
| CC(=O)[C@H]1CC[C@H]2[C@@H]3CCC4=CC(=O)CC[C@]4(C)[C@H]3CC[C@]12C [Progesterone, reference compound] | 4.5 ± 0.44 |  |
| CC(C)NCC(O)COc1cccc2ccccc12 (stereo not drawn) [Propanolol. HCl, reference compound] | 4.6 ± 0.42 |  |
| C=C[C@H]1C[N@@]2CC[C@H]1C[C@@H]2[C@@H](O)c1ccnc2ccc(OC)cc12 [Quinidine. HCl, reference compound] | 4.8 ± 0.39 |  |
| CC(C)(C)OO [t-BHP, tert-butyl hydroperoxide] |  | ROS intracellular levels [3]: significant increase in ROS intracellular levels; ROS intracellular levels (HepG2 cells): significant increase in ROS levels |

Reference: paper PMC10458253, “Unraveling the In Vitro Toxicity Profile of Psychedelic 2C Phenethylamines and Their N-Benzylphenethylamine (NBOMe) Analogues” (Pharmaceuticals, 2023)
